Measurements as given in ChEMBL document CHEMBL4270577, “Synthesis, anticancer activity and molecular modeling studies of 1,2,4-triazole derivatives as EGFR inhibitors” (Eur J Med Chem, 2018).
pIC50: −log10 of the molar value.

Experiments:
[1] = tested on: A549; assay: Cytotoxicity against human A549/ATCC cells incubated for 48 hrs by sulforhodamine B assay; assay type: functional; details: A549, 48 h
[2] = tested on: SNB-19; assay: Cytotoxicity against human SNB19 cells incubated for 48 hrs by sulforhodamine B assay; assay type: functional; details: SNB-19, 48 h
[3] = tested on: A549; assay: Cell cycle arrest in human A549 cells assessed as accumulation at G2 phase at 1.4 uM after 24 hrs by propidium iodide staining based flow cytometry (reference value: 4.19%); assay type: functional
[4] = tested on: SK-MEL-5; assay: Cytotoxicity against human SK-MEL-5 cells incubated for 48 hrs by sulforhodamine B assay; assay type: functional; details: SK-MEL-5, 48 h
[5] = tested on: HOP-92; assay: Cytotoxicity against human HOP92 cells incubated for 48 hrs by sulforhodamine B assay; assay type: functional; details: HOP-92, 48 h
[6] = tested on: UO-31; assay: Cytotoxicity against human UO31 cells incubated for 48 hrs by sulforhodamine B assay; assay type: functional; details: UO-31, 48 h
[7] = tested on: CCRF-CEM; assay: Cytotoxicity against human CCRF-CEM cells incubated for 48 hrs by sulforhodamine B assay; assay type: functional
[8] = tested on: A549; assay: Induction of apoptosis in human A549 cells assessed as viable cells at 1.4 uM after 24 hrs by Annexin V/propidium iodide staining based flow cytometric analysis (reference value: 98.03%); assay type: functional; details: A549, 24 h, read-out: Activity
[9] = molecular target: Serine/threonine-protein kinase B-raf (Mus musculus, UniProt P28028, V600E); assay: Inhibition of mouse full length GST-tagged BRAF V600E mutant using recombinant human His6-tagged MEK1 as substrate preincubated for 1 hr followed by substrate addition measured after 25 mins by ELISA
Chain of Serine/threonine-protein kinase B-raf (P28028 whole entry, looked up, stated change not applied): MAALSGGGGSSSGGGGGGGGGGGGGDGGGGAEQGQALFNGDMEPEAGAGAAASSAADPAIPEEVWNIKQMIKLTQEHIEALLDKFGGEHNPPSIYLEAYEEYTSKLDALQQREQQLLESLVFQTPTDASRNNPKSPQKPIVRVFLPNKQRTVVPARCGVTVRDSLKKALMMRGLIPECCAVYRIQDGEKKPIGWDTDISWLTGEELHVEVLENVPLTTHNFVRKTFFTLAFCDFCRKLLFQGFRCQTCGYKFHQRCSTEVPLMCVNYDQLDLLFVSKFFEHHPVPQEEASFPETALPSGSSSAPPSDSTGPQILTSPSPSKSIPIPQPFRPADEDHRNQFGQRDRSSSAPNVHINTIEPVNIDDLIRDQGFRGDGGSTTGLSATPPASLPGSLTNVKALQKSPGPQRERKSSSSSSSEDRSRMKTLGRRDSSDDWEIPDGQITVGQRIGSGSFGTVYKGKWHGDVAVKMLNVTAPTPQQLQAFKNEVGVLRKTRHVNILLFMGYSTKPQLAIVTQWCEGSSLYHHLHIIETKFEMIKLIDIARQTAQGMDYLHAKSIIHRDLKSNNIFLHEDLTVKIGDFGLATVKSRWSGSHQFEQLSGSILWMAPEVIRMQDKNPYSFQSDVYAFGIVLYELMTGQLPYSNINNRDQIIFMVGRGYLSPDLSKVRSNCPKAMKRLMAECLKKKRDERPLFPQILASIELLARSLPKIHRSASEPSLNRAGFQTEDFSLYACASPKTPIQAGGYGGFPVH

[10] = tested on: PC-3; assay: Cytotoxicity against human PC3 cells incubated for 48 hrs by sulforhodamine B assay; assay type: functional; details: PC-3, 48 h
[11] = tested on: MDA-MB-468; assay: Cytotoxicity against human MDA-MB-468 cells incubated for 48 hrs by sulforhodamine B assay; assay type: functional; details: MDA-MB-468, 48 h
[12] = tested on: NCI-H226; assay: Cytotoxicity against human NCI-H226 cells incubated for 48 hrs by sulforhodamine B assay; assay type: functional; details: NCI-H226, 48 h
[13] = tested on: RPMI-8226; assay: Cytotoxicity against human RPMI8226 cells incubated for 48 hrs by sulforhodamine B assay; assay type: functional; details: RPMI-8226, 48 h
[14] = tested on: HL-60(TB); assay: Cytotoxicity against human HL-60(TB) cells incubated for 48 hrs by sulforhodamine B assay; assay type: functional; details: HL-60, 48 h
[15] = tested on: CAKI-1; assay: Cytotoxicity against human Caki1 cells incubated for 48 hrs by sulforhodamine B assay; assay type: functional; details: CAKI-1, 48 h
[16] = tested on: MDA-MB-231; assay: Cytotoxicity against human MDA-MB-231 cells incubated for 48 hrs by sulforhodamine B assay; assay type: functional; details: MDA-MB-231, 48 h
[17] = tested on: BT-549; assay: Cytotoxicity against human BT549 cells incubated for 48 hrs by sulforhodamine B assay; assay type: functional; details: BT-549, 48 h
[18] = tested on: SK-MEL-2; assay: Cytotoxicity against human SK-MEL-2 cells incubated for 48 hrs by sulforhodamine B assay; assay type: functional; details: SK-MEL-2, 48 h
[19] = tested on: KM12; assay: Cytotoxicity against human KM12 cells incubated for 48 hrs by sulforhodamine B assay; assay type: functional; details: KM12, 48 h
[20] = tested on: K562; assay: Cytotoxicity against human K562 cells incubated for 48 hrs by sulforhodamine B assay; assay type: functional; details: K562, 48 h
[21] = tested on: HCC 2998; assay: Cytotoxicity against human HCC2998 cells incubated for 48 hrs by sulforhodamine B assay; assay type: functional; details: HCC 2998, 48 h
[22] = tested on: NCI-H23; assay: Cytotoxicity against human NCI-H23 cells incubated for 48 hrs by sulforhodamine B assay; assay type: functional; details: NCI-H23, 48 h
[23] = tested on: OVCAR-8; assay: Cytotoxicity against human OVCAR8 cells incubated for 48 hrs by sulforhodamine B assay; assay type: functional; details: OVCAR-8, 48 h
[24] = tested on: SF-539; assay: Cytotoxicity against human SF539 cells incubated for 48 hrs by sulforhodamine B assay; assay type: functional; details: SF-539, 48 h
[25] = tested on: RXF 393; assay: Cytotoxicity against human RXF393 cells incubated for 48 hrs by sulforhodamine B assay; assay type: functional; details: RXF 393, 48 h
[26] = tested on: SN12C; assay: Cytotoxicity against human SN12C cells incubated for 48 hrs by sulforhodamine B assay; assay type: functional
[27] = tested on: OVCAR-5; assay: Growth inhibition of human OVCAR5 cells at 10 uM incubated for 48 hrs by sulforhodamine B assay relative to control; assay type: functional; details: OVCAR-5, 48 h, read-out: GI
[28] = read-out: LC50 (the source's name)

Structure (SMILES): COc1ccc(-c2nc3sc(-c4ccc(Cl)cc4)cn3n2)cc1
- GI50 [1]: 1.59 µM
- TGI [1]: 5.89 µM
- CC50 [1, 28]: 46.9 µM
- GI50 [2]: 2.47 µM
- TGI [2]: > 50 µM
- CC50 [2, 28]: > 50 µM
- Activity [3]: 14.36%
- GI50 [4]: 14 µM
- TGI [4]: > 50 µM
- CC50 [4, 28]: > 50 µM
- GI50 [5]: 0.91 µM
- TGI [5]: 7.61 µM
- CC50 [5, 28]: > 50 µM
- GI50 [6]: 1.19 µM
- TGI [6]: 4.51 µM
- CC50 [6, 28]: 30.6 µM
- GI50 [7]: > 50 µM
- TGI [7]: > 50 µM
- CC50 [7, 28]: > 50 µM
- viability at 1.4 µM [8]: 88%
- pIC50 [9]: 5.33
- GI50 [10]: > 50 µM
- TGI [10]: > 50 µM
- CC50 [10, 28]: > 50 µM
- GI50 [11]: 2.08 µM
- TGI [11]: > 50 µM
- CC50 [11, 28]: > 50 µM
- GI50 [12]: 11.1 µM
- TGI [12]: > 50 µM
- CC50 [12, 28]: > 50 µM
- GI50 [13]: 3.67 µM
- TGI [13]: > 50 µM
- CC50 [13, 28]: > 50 µM
- GI50 [14]: > 50 µM
- TGI [14]: > 50 µM
- CC50 [14, 28]: > 50 µM
- GI50 [15]: 1.79 µM
- TGI [15]: 8.92 µM
- CC50 [15, 28]: 48.9 µM
- GI50 [16]: 2.06 µM
- TGI [16]: 16.7 µM
- CC50 [16, 28]: > 50 µM
- GI50 [17]: 43.2 µM
- TGI [17]: > 50 µM
- CC50 [17, 28]: > 50 µM
- GI50 [18]: > 50 µM
- TGI [18]: > 50 µM
- CC50 [18, 28]: > 50 µM
- GI50 [19]: 12.2 µM
- TGI [19]: > 50 µM
- CC50 [19, 28]: > 50 µM
- GI50 [20]: 29.4 µM
- TGI [20]: > 50 µM
- CC50 [20, 28]: > 50 µM
- GI50 [21]: > 50 µM
- TGI [21]: > 50 µM
- CC50 [21, 28]: 39.4 µM
- GI50 [22]: 6.66 µM
- TGI [22]: > 50 µM
- CC50 [22, 28]: > 50 µM
- GI50 [23]: 2.6 µM
- TGI [23]: > 50 µM
- CC50 [23, 28]: > 50 µM
- GI50 [24]: 1.85 µM
- TGI [24]: 21.5 µM
- CC50 [24, 28]: > 50 µM
- GI50 [25]: 5.99 µM
- TGI [25]: 39.7 µM
- CC50 [25, 28]: > 50 µM
- GI50 [26]: 1.84 µM
- TGI [26]: > 50 µM
- CC50 [26, 28]: > 50 µM
- inhibition of growth at 10 µM [27]: 48%
